Measured values published in patent US20250092065A1, “2-(INDAZOL-5-YL)-6-(PIPERIDIN-4-YL)-1,7-NAPHTHYRIDINE DERIVATIVES AND RELATED COMPOUNDS AS MODULATORS FOR SPLICING NUCLEIC ACIDS AND FOR THE TREATMENT OF PROLIFERATIVE DISEASES” (REMIX THERAPEUTICS INC., priority 2022, published 2025).
Where two headings read alike, the source gives them in different places.

Assays:
Format in all cases: cell-based, human
[1] = tested on: MYB mRNA; experiment: RT-qPCR splicing assay, MYB mRNA canonical (CJ) and alternative (AJ) junction; conditions: Homo sapiens; for AC50: MYB alternative junction mRNA, read-out: MYB AJ (increase in AJ mRNA, AC50)
In short: (§1)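 A673 or K562 cells treated 24 h at 37 °C with an 11-point 3-fold dilution series (top 10 uM, DMSO ≤0.25%). Lysates went directly to one-step RT-qPCR quantifying canonical (CJ) and alternative-exon (AJ) junctions, normalized to GAPDH, GUSB or PPIA. Values from ΔΔCt versus DMSO, RQ = 2^(−ΔΔCt), expressed as percentage response.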

[2] = tested on: HTT mRNA; experiment: RT-qPCR splicing assay, HTT mRNA canonical (CJ) and alternative (AJ) junction; conditions: Homo sapiens; for AC50: HTT alternative junction mRNA, read-out: HTT AJ (increase in AJ mRNA, AC50)
In short: as §1

[3] = tested on: MYB; experiment: HiBiT protein abundance assay, MYB (K562 HiBiT knock-in); conditions: HiBiT knock-in K562 cells, 24 hours, top dose 10 μM
In short: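 Luminescence readout: Nano-Glo HiBiT lytic detection after 24 h compound exposure of K562 HiBiT knock-in cells, 10000 cells/well. Dosing 10-pt, 3-fold, top 10 μM final. % response vs untreated parental K562 and DMSO controls; 4PL fit, IC50 = concentration giving 50% protein abundance.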

[4] = tested on: SMN2 mRNA; experiment: RT-qPCR splicing assay, SMN2 mRNA; conditions: Homo sapiens, canonical junction qPCR panel, Table 4; read-out: SMN2 IC50 (decrease in CJ mRNA levels)
In short: as §1

[5] = MYB canonical junction mRNA, RT-qPCR, read-out: MYB CJ (decrease in CJ mRNA levels, IC50)
[6] = canonical junction qPCR panel, Table 4, read-out: MYB IC50 (decrease in CJ mRNA levels)
[7] = HTT canonical junction mRNA, RT-qPCR, read-out: HTT CJ (decrease in CJ mRNA levels, IC50)
[8] = canonical junction qPCR panel, Table 4, read-out: HTT IC50 (decrease in CJ mRNA levels)

| Compound | IC50 [1, 5] | IC50 [1, 6] | IC50 [2, 7] | IC50 [2, 8] | IC50 [3] | IC50 [4] | AC50 ([1]; RT-qPCR) | AC50 ([2]; RT-qPCR) |
| --- | --- | --- | --- | --- | --- | --- | --- | --- |
| Cc1nc2c(C)c(O)c(-c3ccc4nc(N5CC[C@H](N[C@H]6C[C@@H](F)C6)C5)ccc4n3)cc2o1 (stereo in doubt) [Compound 377] | < 100 nM | < 100 nM | < 100 nM | < 100 nM | < 100 nM | < 100 nM | < 100 nM | < 100 nM |
| Cn1cc2cc(-c3ccc4nc(N5CC[C@@H](NC6(CF)CC6)C5)ccc4n3)c(O)cc2n1 [Compound 354, 5-{6-[(3R)-3-{[1-(fluoromethyl)cyclopropyl]amino}pyrrolidin-1-yl]-1,5-naphthyridin-2-yl}-2-methylindazol-6-ol] | < 100 nM | < 100 nM | < 100 nM | < 100 nM | < 100 nM | < 100 nM | < 100 nM | < 100 nM |
| Cn1cc2cc(-c3ccc4nc(N5CC[C@H](NC6(CF)CC6)C5)ccc4n3)c(O)cc2n1 [Compound 355, 5-{6-[(3S)-3-{[1-(fluoromethyl)cyclopropyl]amino}pyrrolidin-1-yl]-1,5-naphthyridin-2-yl}-2-methylindazol-6-ol] | < 100 nM | < 100 nM | < 100 nM | < 100 nM | < 100 nM | < 100 nM | < 100 nM | < 100 nM |
| Cc1c(O)c(-c2ccc3nc(N4CCC(NC5(CF)CC5)C4)ccc3n2)cc2cn(C)nc12 (centres unmarked) [Compound 360, 5-[6-(3-{[1-(fluoromethyl)cyclopropyl]amino}pyrrolidin-1-yl)-1,5-naphthyridin-2-yl]-2,7-dimethylindazol-6-ol] | < 100 nM | < 100 nM | < 100 nM | < 100 nM | < 100 nM | < 100 nM | < 100 nM | < 100 nM |
| Cc1c(O)c(-c2ncc3nc(C4CCNCC4)ccc3n2)cc2cn(C)nc12 [Compound 370, 2,7-dimethyl-5-[6-(piperidin-4-yl)pyrido[3,2-d]pyrimidin-2-yl]indazol-6-ol] | 100 to 1000 nM | 100 to 1000 nM | 100 to 1000 nM | 100 to 1000 nM | 100 to 1000 nM | < 100 nM | 100 to 1000 nM | 1000 to 10000 nM |

Continued, in another order:

| IC50 [1, 5] | IC50 [1, 6] | IC50 [2, 7] | IC50 [2, 8] | IC50 [3] | IC50 [4] | Compound | AC50 ([1]; RT-qPCR) | AC50 ([2]; RT-qPCR) |
| --- | --- | --- | --- | --- | --- | --- | --- | --- |
| < 100 nM | < 100 nM | < 100 nM | < 100 nM | < 100 nM | < 100 nM | Cc1nc2c(F)c(O)c(-c3ccc4nc(N5CC[C@@H](N[C@H]6C[C@@H](F)C6)C5)ccc4n3)cc2o1 (stereo in doubt) [Compound 375] | < 100 nM | < 100 nM |
| < 100 nM | < 100 nM | < 100 nM | < 100 nM | < 100 nM | < 100 nM | Cc1nc2c(C)c(O)c(-c3ccc4nc(N5CC[C@@H](N[C@H]6C[C@@H](F)C6)C5)ccc4n3)cc2o1 (stereo in doubt) [Compound 376] | < 100 nM | 100 to 1000 nM |
| 100 to 1000 nM | 100 to 1000 nM | 100 to 1000 nM | 100 to 1000 nM | 100 to 1000 nM | < 100 nM | Cc1nc2cc(O)c(-c3ccc4nc(N5CC[C@@H](N[C@H]6C[C@@H](F)C6)C5)ccc4n3)cc2o1 (stereo in doubt) [Compound 395] | 100 to 1000 nM | 100 to 1000 nM |
| 100 to 1000 nM | 100 to 1000 nM | < 100 nM | < 100 nM | 100 to 1000 nM | < 100 nM | Cc1nc2cc(O)c(-c3ccc4nc(N5CC[C@H](N[C@H]6C[C@@H](F)C6)C5)ccc4n3)cc2o1 (stereo in doubt) [Compound 396] | 100 to 1000 nM | < 100 nM |
| 1000 to 10000 nM | 1000 to 10000 nM | > 10000 nM | > 10000 nM | 1000 to 10000 nM | 100 to 1000 nM | Cc1c(O)c(-c2cc(C(C)O)c3nc(N4CCNCC4)ccc3n2)cc2cn(C)nc12 (centres unmarked) [Compound 364, 5-[4-(1-hydroxyethyl)-6-(piperazin-1-yl)-1,5-naphthyridin-2-yl]-2,7-dimethylindazol-6-ol] | 1000 to 10000 nM | > 10000 nM |
